For the assay, the target named is LTB4 receptor (Homo sapiens, UniProt Q15722). Briefly: receptor binding test. An excerpt: The activity can be investigated pharmacologically and biochemically using tests as disclosed for example in WO 93/16036, pp. 15 to 17; reference is hereby made to the contents of this publication.

One may read the Ki as the dissociation constant of the complex between target and ligand, obtained from inhibition or displacement. A lower Ki goes with higher affinity.

Sequence of LTB4 receptor (Q15722 whole entry): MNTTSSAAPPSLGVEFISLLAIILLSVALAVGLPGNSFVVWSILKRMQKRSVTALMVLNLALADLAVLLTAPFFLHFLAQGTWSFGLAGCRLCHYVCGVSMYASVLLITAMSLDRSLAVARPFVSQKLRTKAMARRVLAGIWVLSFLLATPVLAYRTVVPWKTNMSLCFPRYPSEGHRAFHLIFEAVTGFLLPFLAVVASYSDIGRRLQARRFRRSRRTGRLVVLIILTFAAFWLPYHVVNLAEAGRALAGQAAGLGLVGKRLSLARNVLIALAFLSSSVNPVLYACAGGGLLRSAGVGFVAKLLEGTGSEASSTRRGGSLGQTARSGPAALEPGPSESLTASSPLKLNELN

In turn, `CCCc1cc(-c2ccc(C(=N)N)cc2)ccc1OCCOc1cccc(O[C@@H]2O[C@H](C(=O)O)[C@@H](O)[C@H](O)[C@H]2O)c1` [Example 1, 3′-n-propyl-4′-[2-(3-hydroxyphenoxy)-ethoxy]-1,1′-biphenyl-4-carboximidamide-O-β-D-glucuronide] displayed a Ki of 3.6 nM.

Source of the values: patent US6528491B2, “Pyranoside derivatives” (Boehringer Ingelheim Pharma KG, priority 2000, dated 2003).
